Source: patent publication US20240285670A1, “THERAPEUTIC TREATMENT OF TUMORS BY BLOCKING THE HEME SYNTHESIS-EXPORT AXIS” (Università degli Studi di Torino, priority 2021, published 2024)

System: SH-SY5Y cells
Experiment: Mitochondrial ATP levels in SHSY-5Y cells
Format: cell-based, human
Settings: FLVCR1a-silenced vs scramble shRNA SH-SY5Y cells
From the text: Results were expressed as nmol NAD*/min/mg mitochondrial protein for complex I, nmol reduced cytochrome c/min/mg mitochondrial protein for complexes II-III, nmol oxidized cytochrome c/min/mg mitochondrial protein for complex IV. Data represent mean±SEM, n=3. For statistical analyses, an unpaired Student's t-test was used; *=p<0.05, **=p<0.01, *=p<0.001. […] Results are expressed as nmol/mg mitochondrial proteins. Data represent mean±SEM, n=3. For statistical analyses, an unpaired Student's t-test was used; *=p<0.05. […] Results are expressed as pmol CO2/h/mg protein. Data represent mean±SEM, n=3. For statistical analyses, an unpaired Student's t-test was used; **=p<0.01. […] Results were expressed as nmol NAD*/min/mg mitochondrial protein for complex I, nmol reduced cytochrome c/min/mg mitochondrial protein for complexes II-III, nmol oxidized cytochrome c/min/mg mitochondrial protein for complex IV. […] Results are expressed as nmol/mg mitochondrial proteins. […] Results are expressed as pmol CO2/h/mg protein. […] (H) TCA cycle enzymes activities are reported in boxes and expressed as mU/mg mitochondrial proteins. […] Results were expressed as nmol NAD^+/min/mg mitochondrial protein for complex I, nmol reduced cytochrome c/min/mg mitochondrial protein for complexes II-III, nmol oxidized cytochrome c/min/mg mitochondrial protein for complex IV. […] Results are expressed as nmol/mg mitochondrial proteins. […]

For “FLVCR1a shRNA: shRNA specifically down-regulating FLVCR1a without targeting FLVCR1b; pLKO.1 lentiviral clone TRCN0000059599, antisense SEQ ID No.: 2 (antisense TTGCTAATGATGCTGTACTGG; sense CCAGTACAGCATCATTAGCAA)”, the “mitochondrial ATP levels” value was “increased mitochondrial ATP levels”.
